Measured values published in PubChem BioAssay (NCI).
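Following 48 hours of exposure in 96-well plates, responses at five concentrations were used to interpolate endpoints linearly. The concentration for 50% growth inhibition is given as GI50. The concentration for full growth arrest is given as TGI.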

How the values were obtained:
Assay in all cases: NCI anticancer screen, dose series, 48 h; in the data active = GI50 below about 0.43 µM; inactive = the rest
[1] = test system: RPMI-8226 leukemia
[2] = test system: MDA-MB-435
[3] = test system: SK-OV-3 ovarian
[4] = test system: CAKI-1 renal
[5] = test system: HS 578T breast
[6] = test system: KM12 colon
[7] = test system: DU-145 prostate
[8] = test system: HL-60(TB) leukemia
[9] = test system: TK-10 renal
[10] = test system: OVCAR-3 ovarian
[11] = test system: NCI/ADR-RES ovarian
[12] = test system: HCT-15 colon
[13] = test system: A498 renal
[14] = test system: SF-268 CNS
[15] = test system: UO-31 renal
[16] = test system: OVCAR-8 ovarian
[17] = test system: K-562 leukemia
[18] = test system: T-47D breast
[19] = test system: MALME-3M melanoma
[20] = test system: HOP-62 NSCLC
[21] = test system: SR leukemia
[22] = test system: MOLT-4 leukemia
[23] = test system: HOP-92 NSCLC
[24] = test system: HT29 colon
[25] = test system: U251 CNS
[26] = test system: SK-MEL-28 melanoma
[27] = test system: ACHN renal
[28] = test system: CCRF-CEM leukemia
[29] = test system: RXF 393 renal
[30] = test system: COLO 205 colon
[31] = test system: IGROV1 ovarian
[32] = test system: SF-539 CNS
[33] = test system: NCI-H460 lung
[34] = test system: SF-295 CNS
[35] = test system: SNB-19 CNS
[36] = test system: NCI-H23 lung
[37] = test system: SN12C renal
[38] = test system: SK-MEL-5 melanoma
[39] = test system: SNB-75 CNS
[40] = test system: A549 NSCLC
[41] = test system: HCT-116 colon
[42] = test system: MCF7 breast
[43] = test system: HCC-2998 colon
[44] = test system: OVCAR-5 ovarian
[45] = test system: EKVX NSCLC
[46] = test system: NCI-H226 lung
[47] = test system: M14 melanoma
[48] = test system: LOX IMVI melanoma
[49] = test system: MDA-MB-231 breast
[50] = test system: UACC-62 melanoma
[51] = test system: UACC-257 melanoma
[52] = test system: SW-620 colon
[53] = test system: OVCAR-4 ovarian
[54] = test system: 786-0 renal

N=C(N)c1ccc(-c2ccc(-c3cc(Cl)cc(Cl)c3)o2)o1
3.11 µM: TGI [4]
3.18 µM: TGI [6]
3.24 µM: TGI [7]
3.34 µM: TGI [3]
2.99 µM: TGI [2]
3.14 µM: TGI [10]
5.02 µM: TGI [5]
inactive: GI50 [1] 2.13 µM | GI50 [2] 1.61 µM | GI50 [3] 1.8 µM | GI50 [4] 1.7 µM | GI50 [5] 2.22 µM | GI50 [6] 1.65 µM | GI50 [7] 1.78 µM | GI50 [8] 1.62 µM | GI50 [9] 1.85 µM | GI50 [10] 1.7 µM
3.49 µM: TGI [8]
3.39 µM: TGI [9]
4.63 µM: TGI [1]

COc1cc(CNC(=S)CCCCCCCCCCC(C)C)ccc1O
> 100 µM: TGI [11] | TGI [12] | TGI [13] | TGI [14] | TGI [16] | TGI [1] | TGI [2] | TGI [17] | TGI [19] | TGI [20] | TGI [3] | TGI [21] | TGI [22] | TGI [24] | TGI [25] | TGI [26] | TGI [27] | TGI [28] | TGI [29] | TGI [30] | TGI [31] | TGI [32] | TGI [33] | TGI [34] | TGI [35] | TGI [36] | TGI [37] | TGI [38] | TGI [39] | TGI [40] | TGI [41] | TGI [42] | TGI [43] | TGI [44] | TGI [7] | TGI [45] | TGI [47] | TGI [48] | TGI [49] | TGI [50] | TGI [51] | TGI [52] | TGI [53] | TGI [9] | TGI [54]
83.7 µM: TGI [5]
86.3 µM: TGI [46]
70.2 µM: TGI [8]
95.7 µM: TGI [15]
94.4 µM: TGI [6]
68 µM: TGI [23]
97.5 µM: TGI [18]
